Data on 20 compounds can be found in patent US10730874B2 (Shire Human Genetic Therapies, Inc., priority 2018, dated 2020).

Bounds are passed on as bounds.

Sequence of human activated kallikrein enzyme (plasma kallikrein) (P03952 391-638): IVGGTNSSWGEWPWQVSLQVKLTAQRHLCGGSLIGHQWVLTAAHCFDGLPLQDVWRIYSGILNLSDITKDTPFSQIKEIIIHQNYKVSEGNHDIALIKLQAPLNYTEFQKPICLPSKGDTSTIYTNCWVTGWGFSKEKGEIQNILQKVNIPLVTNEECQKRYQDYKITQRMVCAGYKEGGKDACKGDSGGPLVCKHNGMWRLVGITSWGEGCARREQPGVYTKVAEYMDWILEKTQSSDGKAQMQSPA
Sequence of human activated kallikrein enzyme (plasma kallikrein) (P03952 20-390 partner): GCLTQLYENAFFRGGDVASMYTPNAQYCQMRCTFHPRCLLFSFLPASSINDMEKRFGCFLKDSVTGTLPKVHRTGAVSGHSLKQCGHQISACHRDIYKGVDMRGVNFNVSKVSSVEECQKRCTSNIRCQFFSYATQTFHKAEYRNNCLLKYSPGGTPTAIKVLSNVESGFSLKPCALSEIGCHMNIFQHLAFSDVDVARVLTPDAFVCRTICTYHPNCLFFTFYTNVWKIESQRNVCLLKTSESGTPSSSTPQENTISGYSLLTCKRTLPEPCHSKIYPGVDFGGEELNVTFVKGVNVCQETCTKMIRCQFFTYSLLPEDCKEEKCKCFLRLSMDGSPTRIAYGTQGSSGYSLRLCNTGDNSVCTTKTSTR

One assay concerns the target human activated kallikrein enzyme (plasma kallikrein) (Homo sapiens (Human), UniProt P03952). Kind of assay: Inhibition of human activated plasma kallikrein, fluorogenic peptide substrate assay, 500 pM enzyme format. Format: biochemical. The settings on record: 500 pM activated kallikrein enzyme, 300 uM Pro-Phe-Arg-7-amido-4-methylcoumarin substrate, 30 min preincubation, 10 min at RT; read-out: Primary Dose Response Assay: Average EC50. In a few lines: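 Buffer 20 mM Tris pH 7.5, EDTA, NaCl, PEG-400, Triton X-100; 300 uM Pro-Phe-Arg-AMC; enzyme–inhibitor preincubation 30 min RT. Format one: 500 pM kallikrein, 10 min RT reaction; format two: 5 pM kallikrein, 18 h RT reaction. Fluorescence read at 460 nm (380 nm excitation).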
A word on the EC50: it is the concentration that produces a half-maximal response. For the compound `O=C(NCc1ncn2ccc(Br)cc12)c1cn(Cc2cn3cc(C4CC4)ccc3n2)nn1` [Example I-303, N-((7-bromoimidazo[1,5-a]pyridin-1-yl)methyl)-1-((6-cyclopropylimidazo[1,2-a]pyridin-2-yl)methyl)-1H-1,2,3-triazole-4-carboxamide], the EC50 is below 1 nM.

On to `Cc1cc2nc(Cn3cc(C(=O)NCc4ncn5ccc(Br)cc45)cn3)cn2cc1C1CC1` [Example I-17, N-((7-bromoimidazo[1,5-a]pyridin-1-yl)methyl)-1-((6-cyclopropyl-7-methylimidazo[1,2-a]pyridin-2-yl)methyl)-1H-pyrazole-4-carboxamide], for which the EC50 was 1 to 10 nM.

`N#Cc1cc(C2CC2)cn2cc(Cn3cc(C(=O)NCc4ncn5ccc(Br)c(F)c45)nn3)nc12` [Example I-131, N-((7-bromo-8-fluoroimidazo[1,5-a]pyridin-1-yl)methyl)-1-((8-cyano-6-cyclopropylimidazo[1,2-a]pyridin-2-yl)methyl)-1H-1,2,3-triazole-4-carboxamide]: the EC50 was below 1 nM.

Take `O=C(NCc1ncn2ccc(Cl)c(F)c12)c1cn(Cc2cn3nccc(CC4COC4)c3n2)nn1` [Example I-296, N-((7-chloro-8-fluoroimidazo[1,5-a]pyridin-1-yl)methyl)-1-((8-(oxetan-3-ylmethyl)imidazo[1,2-b]pyridazin-2-yl)methyl)-1H-1,2,3-triazole-4-carboxamide]: the EC50 lay in the range of 10 to 100 nM.

Turning to `CC(C)c1ccc2nc(Cn3cc(C(=O)NCc4ncn5ccc(Cl)cc45)cn3)cn2c1` [Example I-8, N-((7-chloroimidazo[1,5-a]pyridin-1-yl)methyl)-1-((6-isopropylimidazo[1,2-a]pyridin-2-yl)methyl)-1H-pyrazole-4-carboxamide], the EC50 is below 1 nM.

Turning to `O=C(NCc1ncn2ccc(Cl)c(F)c12)c1cn(Cc2cn3cc(C4CC4)cc(N4CCOC(C(=O)O)C4)c3n2)nn1` (centres unmarked) [Example I-264, 4-(2-((4-(((7-chloro-8-fluoroimidazo[1,5-a]pyridin-1-yl)methyl)carbamoyl)-1H-1,2,3-triazol-1-yl)methyl)-6-cyclopropylimidazo[1,2-a]pyridin-8-yl)morpholine-2-carboxylic acid], the EC50 is below 1 nM.

Regarding `CC(C)(O)Cc1cc(C2CC2)cn2cc(Cn3cc(C(=O)NCc4ncn5ccc(Cl)cc45)cn3)nc12` [Example I-109, N-((7-chloroimidazo[1,5-a]pyridin-1-yl)methyl)-1-((6-cyclopropyl-8-(2-hydroxy-2-methylpropyl)imidazo[1,2-a]pyridin-2-yl)methyl)-1H-pyrazole-4-carboxamide], the EC50 is below 1 nM.

Turning to `C#Cc1c(C2CC2)ccc2nc(Cn3cc(C(=O)NCc4ncn5ccc(Cl)cc45)cn3)cn12` [Example I-79, N-((7-chloroimidazo[1,5-a]pyridin-1-yl)methyl)-1-((6-cyclopropyl-5-ethynylimidazo[1,2-a]pyridin-2-yl)methyl)-1H-pyrazole-4-carboxamide], the EC50 is 1 to 10 nM.

`Cc1ccc2nc(Cn3cc(C(=O)NCc4ncn5ccc(Cl)cc45)cn3)cn2c1C` [Example I-130]: the EC50 was 10 to 100 nM.

Turning to `O=C(O)CCc1cc(C2CC2)cn2cc(Cn3cc(C(=O)NCc4ncn5ccc(Cl)cc45)cn3)nc12` [Example I-100c, 3-(2-((4-(((7-chloroimidazo[1,5-a]pyridin-1-yl)methyl)carbamoyl)-1H-pyrazol-1-yl)methyl)-6-cyclopropylimidazo[1,2-a]pyridin-8-yl)propanoic acid], the EC50 was below 1 nM.

`O=C(NCc1ncn2ccc(Br)c(F)c12)c1cn(Cc2cn3c(F)c(C4CC4)ccc3n2)nn1` [Example I-145, N-((7-bromo-8-fluoroimidazo[1,5-a]pyridin-1-yl)methyl)-1-((6-cyclopropyl-5-fluoroimidazo[1,2-a]pyridin-2-yl)methyl)-1H-1,2,3-triazole-4-carboxamide]: the EC50 was below 1 nM.

As for `O=C(NCc1ncn2ccc(Cl)c(F)c12)c1cn(Cc2cn3cc(C4CC4)ccc3n2)nn1` [Example I-148, N-((7-chloro-8-fluoroimidazo[1,5-a]pyridin-1-yl)methyl)-1-((6-cyclopropylimidazo[1,2-a]pyridin-2-yl)methyl)-1H-1,2,3-triazole-4-carboxamide], the EC50 was below 1 nM.

Turning to `CCOC(=O)c1nnc(Cc2cc(C3CC3)cn3cc(Cn4cc(C(=O)NCc5ncn6ccc(Cl)c(F)c56)nn4)nc23)o1` [Example I-210a, ethyl 5-((2-((4-(((7-chloro-8-fluoroimidazo[1,5-a]pyridin-1-yl)methyl)carbamoyl)-1H-1,2,3-triazol-1-yl)methyl)-6-cyclopropylimidazo[1,2-a]pyridin-8-yl)methyl)-1,3,4-oxadiazole-2-carboxylate], the EC50 is below 1 nM.

With `O=C(NCc1ncn2ccc(Cl)c(F)c12)c1cnn(Cc2cn3cc(C4CC4)ccc3n2)c1` [Example I-147, N-((7-chloro-8-fluoroimidazo[1,5-a]pyridin-1-yl)methyl)-1-((6-cyclopropylimidazo[1,2-a]pyridin-2-yl)methyl)-1H-pyrazole-4-carboxamide], the EC50 was below 1 nM.

Consider `O=C(NCc1ncn2ccc(Cl)c(F)c12)c1cn(Cc2cc3ccc(Cl)cc3s2)nn1` [Example I-234, N-((7-chloro-8-fluoroimidazo[1,5-a]pyridin-1-yl)methyl)-1-((6-chlorobenzo[b]thiophen-2-yl)methyl)-1H-1,2,3-triazole-4-carboxamide], for which the EC50 is 10 to 100 nM.

`O=C(NCc1ncn2ccc(Cl)c(F)c12)c1cn(Cc2cn3nc(C4CC4)cc(N4CCC(C(=O)O)C4)c3n2)nn1` (centres unmarked) [Example I-267, 1-(2-((4-(((7-chloro-8-fluoroimidazo[1,5-a]pyridin-1-yl)methyl)carbamoyl)-1H-1,2,3-triazol-1-yl)methyl)-6-cyclopropylimidazo[1,2-b]pyridazin-8-yl)pyrrolidine-3-carboxylic acid]: the EC50 is below 1 nM.

Regarding `O=C(NCc1ncn2ccc(Cl)cc12)c1cnn(Cc2cn3cc(C4CC4)c(Cl)cc3n2)c1` [Example I-24, 1-((7-chloro-6-cyclopropylimidazo[1,2-a]pyridin-2-yl)methyl)-N-((7-chloroimidazo[1,5-a]pyridin-1-yl)methyl)-1H-pyrazole-4-carboxamide], the EC50 fell in the range of 1 to 10 nM.

As for `CCOC(=O)Cc1cc(C2CC2)cn2cc(Cn3cc(C(=O)NCc4ncn5ccc(Br)c(F)c45)cn3)nc12` [Example I-105, ethyl 2-(2-((4-(((7-bromo-8-fluoroimidazo[1,5-a]pyridin-1-yl)methyl)carbamoyl)-1H-pyrazol-1-yl)methyl)-6-cyclopropylimidazo[1,2-a]pyridin-8-yl)acetate], the EC50 was below 1 nM.

Take `O=C(NCc1ncn2ccc(I)cc12)c1cnn(Cc2cn3cc(C4CC4)ccc3n2)c1` [Example I-45, 1-((6-cyclopropylimidazo[1,2-a]pyridin-2-yl)methyl)-N-((7-iodoimidazo[1,5-a]pyridin-1-yl)methyl)-1H-pyrazole-4-carboxamide]: the EC50 was in the range of 1 to 10 nM.

The same assay, now with this note: comparative compounds (Table II); assay format with 500 pM (500 μM in the source) activated kallikrein; read-out: Primary Dose Response Assay: Average EC50.
For `COCc1nn(Cc2ccc(Cn3ccccc3=O)cc2)cc1C(=O)NCc1c(C#N)ccc(OC)c1F` [reference compound], the EC50 lay in the range of 1 to 10 nM.
